Laboratory results published in patent US11541065B2, “Compositions and methods for treating brain injury” (UNM RAINFOREST INNOVATIONS, priority 2018, dated 2023).

Assays:
Type in all cases: cell-based
[1] = test system: COX2; test: COX2 protein level in rat neuronal cultures (immunoblot); settings: for effect on homocysteine-induced increase in COX2 protein level: rat neurons, L-homocysteine 50 μM four hours, with MK801 10 μM, NVP-AAM077 30 nM, Ro 25-6981 1 μM, PD98059 15 μM, SB203580 5 μM or Bengamide B 500 nM
Experimental: Equal protein from total cell lysates obtained from rat and mice neuronal cultures were resolved in 7.5% SDS-PAGE, and subjected to immunoblotting procedure as described earlier (Poddar and Paul, 2009, J Neurochem 110:1095-1106). Blots were analyzed with antibodies as described in each experiment. All primary antibodies (anti-COX2, anti-B-tubulin) and secondary-horse radish peroxidase conjugated antibody concentrations were used according to recommendations provided by the manufacturer. Signals from immune complexes in the blots were developed using West Pico supersignal chemiluminescence reagents and then captured on X-ray films. Densitometric analysis of the images was performed using the Image J software.
Rat and mice neuronal cultures were washed with PBS (pH 7.4), containing sodium pyrophosphate and sodium vanadate as phosphatase inhibitors, and harvested in SDS sample buffer (Laemmli, 1970, Nature 227:680-685). Equal protein from total cell lysates, estimated using BCA kit, was resolved by SDS-PAGE (7.5%) followed by western blotting on PVDF membranes. Immunoblot analysis was performed by first blocking with 5% non-fat dry milk for 1 h at room temperature followed by incubation with either COX2 immunoblot analysis (Poddar and Paul, 2009, J Neurochem 110:1095-1106) as described in each experiment. All primary antibodies and horseradish peroxidase conjugated secondary antibodies were used according to manufacturer's recommendations. Signals from immune complexes in the blots were developed using West Pico supersignal chemiluminescence reagents and then captured on X-ray films. Densitometric analysis of the images was performed using the NIH Image J software.

[2] = test system: [Ca^2+]i; test: Intracellular Ca^2+ by Fura2 imaging, rat neuronal cultures; settings: for effect on homocysteine-induced increase in Fura2 fluorescence ratio and [Ca^2+]i: rat neurons, somata and processes, L-homocysteine 50 μM 60 minutes, with EGTA 2 mM, DL-AP5 200 μM, NVP-AAM077 30 nM or Ro 25-6981 1 μM
Experimental: Embryos obtained from pregnant Sprague Dawley rats (16-17-day gestation) or wild type (WT) and GluN2A KO mice (15-16-day gestation) were used to establish primary cortical neuronal cultures as previously described (Poddar and Paul, 2009, J Neurochem 110:1095-1106; Poddar and Paul, 2013, J Neurochem 124:558-570; Poddar et al., 2017, J Neurochem 142:560-573). Neurons were grown on either (a) 35-mm culture dishes (MatTek Corp., Ashland, Mass.) coated overnight with poly-D-lysine (50 μg/ml) and laminin (10 μg/ml) for Ca^2+ imaging studies, (b) poly-D-lysine-coated 60 mm dishes (Corning BIOCOAT, Corning Inc., Corning, N.Y.) for biochemical studies, or (c) poly-D-lysine-coated 4-well culture slides (Corning BIOCOAT, Corning Inc., Corning, N.Y.) for cell death assay. Neurons were maintained in culture for 12-13 days before experiment. The cells were treated with freshly prepared L-homocysteine (50 μM) in Hank's balanced salt solution containing 50 μM of glycine (Lipton et al., 1997, Proceedings of the National Academy of Sciences of the United States of America 94:5923-5928; Poddar and Paul, 2009, J Neurochem 110:1095-1106; Poddar and Paul, 2013, J Neurochem 124:558-570; Poddar et al., 2017, J Neurochem 142:560-573) for the specified time periods. In a parallel series of experiments, cells were treated with glutamate (50 μM) for the specified time periods. Cells were then processed for live cell imaging, immunoblotting or cell death assay. In some experiments EGTA, DL-AP5, NVP-AAM077, Ro 25-6981 or PD98059 was added 15 minutes prior to L-homocysteine or glutamate treatment.
[Ca^2+]i in neurons was determined using the fluorescent indicator, Fura2-AM. Briefly, neurons were loaded with Fura2 (10 μM) in phenol red free Hank's balanced salt solution for 30 minutes at 37° C. followed by post-incubation for 20 minutes (Paul, S. and Connor, J. A., 2010, J Neurochem 114:1107-1118). Time lapse live cell imaging was performed following stimulation using a Nikon Ti Eclipse inverted microscope equipped with Tokai Hit stage top incubator maintained at 37° C. and infused with 95:5% air:CO2 mixture. Fields of 5-8 cells were imaged using a 40× oil immersion objective (Nikon). Fluorescence excitations (340 and 380 nm) were provided with Sutter LB-LS/30 Lambda xenon arc lamp and fluorescence emissions (510 nm) were captured using a CCD camera (Teledyne Photometries, Tucson, Ariz.). NIS Elements AR software was used for data acquisition and analysis. Ratiometric data (340/380 nm) from regions of interest were corrected for background and converted into estimates of [Ca^2+]i. as described previously (Paul, S. and Connor, J. A., 2010, J Neurochem 114:1107-1118) using the equation developed earlier (Grynkiewicz et al., 1985, J Biol Chem 260:3440-3450). Maximum and minimum fluorescence ratios were determined from Fura2 loaded cells treated with ionomycin (5 μM) in calcium containing medium (2 mM) or in calcium free media with EGTA (0.5 mM).

[3] = test system: rat cortical neuronal cultures; test: Neuronal cell death by Hoechst DNA staining, rat cortical neuron cultures
Experimental: Neurons were subjected to staining with Hoechst 33342 dye for 15 minutes, washed extensively with PBS, and analyzed using fluorescent microscopy to assess nuclear damage. Imaging was performed with a Zeiss Axiovert 200M fluorescence microscope with attached AxioCam CCD camera using 20× objective lens (Carl Zeiss, Thomwood, N.Y.). To quantitatively assess the percentage of pyknotic nuclei a total of 1000 cells were counted for each set of experiments. Mean±SEM (n=3) were used for statistical comparison using ANOVA (Bonferroni's multiple comparison test). Differences were considered significant when p<0.05.
[…] Glutamate treated cells were then maintained in their original medium for another 17 hours. For some experiments, neurons were treated with L-homocysteine or glutamate in the presence of NVP-AAM077 or PD98059. The neurons were then fixed and stained with Hoechst 33342 dye as previously described (Poddar and Paul, 2009, J Neurochem 110:1095-1106). Percentage of pyknotic nuclei was quantitatively assessed by fluorescent microscopy to determine the extent of neuronal death.

C[C@@H](CN1CCC(Cc2ccccc2)CC1)[C@@H](O)c1ccc(O)cc1 [Ro 25-6981]
effect on homocysteine-induced increase in COX2 protein level [1]: fails to ameliorate homocysteine-induced increase in COX2 protein level
effect on homocysteine-induced increase in Fura2 fluorescence ratio and [Ca^2+]i [2]: fails to attenuate homocysteine-induced [Ca^2+]i increase

C[C@H](NC(c1cccc2[nH]c(=O)c(=O)[nH]c12)P(=O)(O)O)c1ccc(Br)cc1 (stereo partly drawn) [NVP-AAM077, ({[(1S)-1-(4-bromophenyl)ethyl]amino}-(2,3-dioxo-1,4-dihydroquinoxalin-5-yl)methyl)phosphonic acid]
effect on homocysteine-induced apoptotic cells ([3]; rat cortical neurons, L-homocysteine 50 μM 24 hours, NVP-AAM077 30 nM): significantly reduced the number of apoptotic cells
effect on homocysteine-induced neuronal death ([3]; rat neurons, L-homocysteine 50 μM 18 hours, with NVP-AAM077 30 nM or PD98059 15 μM): Significantly Reduces Homocysteine-Induced Neuronal Death
effect on homocysteine-induced increase in COX2 protein level [1]: blocks homocysteine-induced increase in COX2 protein expression
effect on homocysteine-induced increase in Fura2 fluorescence ratio and [Ca^2+]i [2]: attenuates homocysteine-induced increase in Fura2 fluorescence ratio and [Ca^2+]i

N[C@@H](CCS)C(=O)O [L-homocysteine]
number of apoptotic cells (pyknotic nuclei) ([3]; rat cortical neurons, L-homocysteine 50 μM, 24 hours, alone vs untreated controls): significant increase in the number of apoptotic cells
cell death (pyknotic nuclei) ([3]; rat neurons, L-homocysteine 50 μM, 18 h, alone): significant increase in cell death
COX2 protein levels ([1]; cortical neurons, L-homocysteine 50 μM, time course, alone): progressive increase in COX2 protein levels
maximum increase in [Ca^2+]i vs control cells ([2]; rat neurons (soma), L-homocysteine 50 μM, by 60 minutes): approximately 7.2 folds
